The values below come from PubChem BioAssay AID1053191 (Broad Institute, 2014).

Structures are written as SMILES. Records with an inconclusive call do not appear. Calls of active or inactive are those of the source.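 The calls were made as follows: active = compounds whose fitted half-maximal potency for killing cells lies within twice their highest tested dose; inconclusive = flat curve with 30 to 70% signal loss, or poor fit; inactive = the rest.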

Assay [1] in a line: HEK293 cell viability loss – dry powder samples, cytotoxicity control, dose response (AID 1053191). The settings on record: HEK293T viability, ATP luminescence, 72 h; at 50 µM (top of the series).
Assay [2] has as its system HEK293T viability, ATP luminescence, 72 h. The description is as above.

On to `Cc1cc2ccccc2n1CCNC(=O)COc1ccc2ccccc2c1`, for which, in assay [1], the activity change, negative = cytotoxic is -12.6% (inactive).
On the same count and under the same terms, to `Cc1cc(C)c(S(=O)(=O)NCCn2c(C)cc3ccccc32)c(C)c1` belongs -16.1% (inactive); to `Cc1cc2cc(CNC(=O)Nc3ccc(Cl)c(Cl)c3)ccc2n1C`, -15.7% (inactive); to `OCc1ccc(-c2nn(Cc3ccccc3)c3ccccc23)o1`, 4.83% (inactive).
Still for that read-out and setting: to `CNc1ccccc1C(C)(C)c1cc(-c2cccc(OC)c2)no1` belongs -41.9% (inactive).
The same measure, in the same setting: next, `Cc1cccc(NC(=O)NCc2ccc3c(c2)cc(C)n3C)c1`: -22.6% (inactive).
Broadly, the AC50 is the concentration at which the activity in the assay is half-maximal. As to `O=C(c1c(F)cccc1F)N(Cc1ccccc1)Cc1ccccc1`, the half-maximal activity concentration (AC50) in assay [2] is 50 µM.
Take `Cc1ccc(CSc2nc3[nH]ncc3c(=O)[nH]2)cc1`: the activity change, negative = cytotoxic in assay [1] was -29.4% (inactive).
Same read-out and setting: next, `Cc1ccc(S(=O)(=O)NCc2ccc3c(c2)cc(C)n3C)cc1`: -7.83% (inactive); `CCc1cccc2c1NC1(CCCC1)CC2C` (centres undefined): -4.91% (inactive).
As to `O=C(O)C1CCN(c2nc(-c3ccccc3)c3cc(Br)ccc3n2)CC1`, in assay [1], the activity change, negative = cytotoxic was 13.4% (inactive).
The same measure, in the same setting: next, `COc1ccc(Nc2ccccc2N)cc1`: -11.7% (inactive).
Still for that read-out and setting: next, `COc1cc(CC2C(=O)Nc3ccccc32)cc(C)c1O` (centres undefined): -16.6% (inactive); `CCc1ccc(-n2c(=S)sc3c(=O)n(-c4ccccc4C)c(SCC(=O)O)nc32)cc1`: 12.6% (inactive).
